# Experimental data from paper PMC8070582, “Therapeutic Efficacy of a Novel Acetylated Tetrapeptide in Animal Models of Age-Related Macular Degeneration” (International Journal of Molecular Sciences, 2021).
# Where “and” joins values, the source holds several entries; their conditions need not be identical. Equal values may be shown once. Entries after “also recorded” stand apart in the source; their conditions may differ.
# How the values were obtained:
# [1] = tested on: VEGF-induced angiogenesis; set-up: method as in PMID 10747021; conditions: slow-releasing hydrogel implants in corneal stroma; assessed on day 12; cited from earlier work
# [2] = tested on: choroidal neovascularization (CNV); experiment: Laser-induced CNV mouse model, treatment on the same day as laser irradiation (CNV area); type: in vivo; conditions: day 7, vs vehicle (p < 0.001)
# Description: Six-week-old male C57BL/6J mice were purchased from Central Laboratory Animal and then maintained in a specific pathogen free facility in Seoul National University. After deep anesthesia with zolazepam plus tiletamine (3.75 mg/kg, Virbac, Seoul, Korea) and xylazine (7.5 mg/kg, Bayer AG, Leverkusen, Germany), mice were treated with a customized laser indirect ophthalmoscope system (ILOODA) to break Bruch’s membrane (300 μm spot size, 300 mW power, and 100 ms exposure time) as described previously. After the laser irradiation, 10 μL PBS (vehicle), 1 ng of each peptide (RLYE, R(D)LYE and Ac-RLYE), or 145 ng of aflibercept was administered into the vitreous cavity of mice (six per each treatment group) at the same day as laser irradiation. At 7 days after the laser irradiation, the RPE-choroid-scleral complexes were prepared from the enucleated eyes. After immunostaining of the RPE-choroid-scleral complexes with isolectin B4 conjugated with Alexa Fluor-594 (1:100; cat. No. I21413, Invitrogen, Waltham, MA, USA), the CNV area was quantitatively analyzed by the measurement of the area using the ImageJ software. All animal experiments were carried out according to the guidelines of the Ethics Committee for Protection and Use of Experimental Animals of Seoul National University.
# retinal vascular leakage = experiment: Streptozotocin-induced diabetic mouse model, retinal vascular leakage; type: in vivo; conditions: 1 µL of 1.5 mM intravitreal; 24 h after treatment; vs vehicle; RLYE 0.01 < p < 0.05, Ac-RLYE p < 0.01
# Description: To prepare a streptozotocin-induced diabetic mouse model, a freshly prepared STZ solution (100 mM) in a citrate buffer (100 mM, pH 4.5) was injected intraperitoneally at 150 mg/kg into the mice, and to prevent hypoglycemic shock, 10% sucrose was sufficiently provided. After two days, blood glucose was measured using an Accu-Chek Performa blood glucose meter (Roche Diagnostics GmbH, Mannheim, Germany), and when non-fasting blood glucose within 1 to 2 weeks was maintained at 300 mg/dl or more, the mice were used as diabetic animal models. […]. Here, the same amount of PBS was injected into the control group. The peptide was injected, and after 24 h, 1 mL (1.25 mg) of FITC-dextran (250 kDa) was injected into the left ventricle of each mouse to allow circulation for approximately 5 min. The mice were euthanized by cervical dislocation, and the eyeballs were extracted and fixed in 4% paraformaldehyde at room temperature for 1 h. The retina was isolated from the fixed eyeball to prepare a retinal flat mount, and vascular leakage was observed under a confocal microscope. Meanwhile, the fluorescence of FITC-dextran leaked from retinal vessels was measured using Fluoview software.
# [3] = tested on: choroidal neovascularization (CNV); experiment: Therapeutic laser-induced CNV mouse model, treatment 10 days after laser irradiation (CNV area); type: in vivo; conditions: 1 µL of 1.5 mM intravitreal 10 days after laser irradiation; day 4 after treatment
# Description: […]. Here, the same amount of saline was injected into the control group. After 4 days (14 days after the laser irradiation), an experiment for analyzing a therapeutic effect was carried out by extracting the eyeballs of the mice. The extracted eyeballs were fixed in 4% paraformaldehyde for 12 h, and embedded in paraffin. Sections with a thickness of 4 μm were prepared from paraffin tissue, and subjected to H&E staining. Afterward, an image of a section with the largest choroidal neovascular membrane area was taken from each subject, and the area of the choroidal neovascular membrane was quantitatively analyzed using ImageJ program (NIH, Bethesda, Rockville, MD, USA). In the saline-injected control group, the average of the choroidal neovascular areas was represented as 100%, and a therapeutic effect of each treatment group was analyzed.
# [4] = cited from earlier work
# [5] = tested on: choroidal neovascularization (CNV); experiment: Rabbit 4-week laser-induced CNV model (retinal fluorescence intensity); type: in vivo; conditions: 2000 µg/eye intravitreal; only until day 14 after CNV induction
# Excerpt: From the day of laser irradiation to 7, 14, 21, and 28 days after laser induced CNV, the rabbits were instilled with a 1% Mydriacyl eye drop and then anesthetized.
# [6] = tested on: choroidal neovascularization (CNV); experiment: Rabbit 7-week CNV model, treatment 1 week after laser irradiation; type: in vivo
# Description: From the day of laser irradiation to 7, 14, 21, 28, 35, 42, and 49 days after laser induced CNV, the rabbits were instilled with a 1% Mydriacyl eye drop and then anesthetized.
# Fundus photography of retinal angiography was performed at the 42nd day from test substance treatment. Additionally, the eyes were then removed and fixed in 10% formalin solution for 24 h. The cornea, lens, and retina were removed. After washing with PBS, the […] and choroid complex (RPE-choroid complex) just remained from fixed eyes. The CNV area was stained with rhodamine conjugated isolectin B4 (IB4, Sigma-Aldrich, St. Louis, MO, USA) for 24 h at 4 °C. After staining, they were washed in PBS, flat-mounted on a glass slide, and then observed with a fluorescence microscope equipped with a digital camera and photographed. The CNV area was measured by ImageJ software.
# [7] = cited from earlier work; remark: listed apart in the source
# [8] = tested on: corneal neovascularization; set-up: method as in PMID 24240485; conditions: administered on day 7 after suture placement; 1 week post-treatment; cited from earlier work
substance,measurement,setting,value
ATWLPPR,VEGF-induced angiogenesis,[1],abolish VEGF-induced angiogenesis
Arg-Leu-Tyr-Glu (RLYE; printed: Arg-Leu-Tyr-Glu),CNV area,[2]; 1 ng/1 µL/eye intravitreal on day of laser irradiation,significantly reduced
same,retinal vascular leakage (FITC-dextran),retinal vascular leakage,effectively inhibited
same,degree of CNV area reduction compared with vehicle,[3],55%
same,occurrence of CNV (CNV area),[3],significantly reduced the CNV area; also recorded: effectively reduced
same,serum half-life,[4],1.2 h
aflibercept: fusion protein of ligand-binding elements of VEGFR-1 and VEGFR-2 fused to the Fc portion of IgG,CNV area,[2]; 145 ng/1 µL/eye intravitreal on day of laser irradiation,significantly reduced
same,retinal fluorescence intensity vs vehicle group,[5],significantly reduced
same,retinal fluorescence intensity vs vehicle control,"[6]; 2000 µg/eye intravitreal on day 7 after laser, days 7, 14, 21, 28, 35 and 42 after administration",significantly lower
same,"CNV lesions (CNV area) compared with vehicle control, reduced to","[6]; aflibercept 2000 µg/eye, day 42 after drug administration",38.9% and 36%
same,t1/2 (ocular),[7],94.1 h
same,volume of distribution,[7],1.4 mL
bevacizumab: anti-VEGF antibody,degree of reduction of the CNV area compared with vehicle,[8],46%–60%
"ranibizumab: an anti-VEGF therapy (anti-VEGF antibody), positive control",degree of reduction of the CNV area compared with vehicle,[8],53%–60%
same,t1/2 (ocular),[7],52.4 h
same,volume of distribution,[7],2.7 mL
